This passage reports normalised viability and normalised response results from the supplement of paper PMC4862054.

Common to all, as to conditions: incubation time: 72 h
The test system of experiment [1] is CAL-85-1. The experiment in a line: normalised viability (% of control), CellTiter-Blue; higher = more viable cells (about 100 = DMSO control). The protocol:
(§1)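 DSRT, CellTiter-Blue viability, 72 h incubation. Signal is normalised to DMSO and benzethonium chloride controls. Value is the normalised response at dose 9.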
A general note: The colour change of resazurin is a common sign of viable cells or microbes.

Experiment [2] has as its system HDQ-P1. The experiment is described as above. The protocol:
as §1

Experiment [3] concerns DU-4475. The description is as above. The protocol:
as §1

In experiment [4] the test system is CAL-51. The experiment is described as above. The protocol: as §1
The test system of experiment [5] is CAL-85-1. The experiment is described as above. The protocol: (§2)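 DSRT, CellTiter-Blue viability, 72 h incubation. Signal is normalised to DMSO and benzethonium chloride controls. Value is the normalised response at dose 7.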
This is another data set of the same source.

Experiment [6] deals with HDQ-P1. The description is as above. On the procedure:
as §2
The source holds these as a separate data set.

Experiment [7] deals with MDA-MB-453. The description is as above. On the procedure:
as §2

Experiment [8] has as its system DU-4475. Described as above. The protocol:
as §2
The source holds these as a separate data set.

Experiment [9] concerns CAL-148. Described as above. On the procedure:
as §2

Experiment [10] has as its system CAL-51. The description is as above. The protocol: as §2
This is another data set of the same source.

Experiment [11] deals with MDA-MB-468. Kind of experiment: normalised response (% of control), CellTiter-Glo; higher = more viable cells (100 = DMSO, 0 = benzethonium chloride kill control). The essentials:
(§3)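 Breast cancer cell lines (20 µl suspension) were seeded into 384-well plates holding compound at 5 concentrations in 10-fold steps over a compound-specific 10,000-fold range, then incubated 72 h. CellTox Green fluorescence (485/520 nm) was read first, then CellTiter-Glo luminescence after 10 min at room temperature. Each plate was normalised to 0.1 % DMSO (100) and a positive kill control (0). Each value is the normalised signal at a single concentration of the series.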
In general terms: In ATP-based viability assays light output follows the ATP content of the culture.

In experiment [12] the test system is SK-BR-3. The experiment is described as above. In outline:
as §3

The test system of experiment [13] is CAL-85-1. The description is as above. The essentials: as §3
The test system of experiment [14] is BT-549. The description is as above. The essentials: as §3
Experiment [15] relates to MCF-10A. Described as above. The essentials: as §3
Experiment [16] relates to HDQ-P1. Described as above. The essentials: as §3
In experiment [17] the test system is MFM-223. The description is as above. The essentials:
as §3

For experiment [18], the system named is CAL-120. The experiment is described as above. The essentials:
as §3

Experiment [19] relates to HCC1599. The description is as above. In outline: as §3
The test system of experiment [20] is MDA-MB-453. The description is as above. In outline:
as §3

The test system of experiment [21] is Hs578T. Described as above. The essentials: as §3
Experiment [22] deals with MDA-MB-231. Described as above. The essentials:
as §3

Experiment [23] deals with BT-474. The description is as above. In outline:
as §3

Experiment [24] deals with HCC1937. The experiment is described as above. The essentials: as §3
For experiment [25], the system named is DU-4475. The description is as above. In outline: as §3
Experiment [26] relates to CAL-148. The experiment is described as above. In outline: as §3
In experiment [27] the test system is CAL-51. The description is as above. In outline: as §3
Experiment [28] deals with HCC1143. The experiment is described as above. The essentials: as §3
In experiment [29] the test system is MDA-MB-436. The experiment is described as above. The essentials:
as §3

Several values for one entry are separate records, joined by “and”; a condition that tells them apart may be missing. Equal values may be shown once.

In the case of `O=C(CCBr)N1CCN(C(=O)CCBr)CC1` [Pipobroman] (10000 nM), the normalised viability came out at 85.6% in [1], 109% in experiment [2], 112% in [3] and 108% in [4].
For the compound `CO[C@@H](C(=O)N1Cc2[nH]nc(NC(=O)c3ccc(N4CCN(C)CC4)cc3)c2C1)c1ccccc1` [Danusertib] (10000 nM), the normalised viability in experiment [1] is 32.1%; in experiment [2], 10.4%; in [3], 13.9%; in experiment [4], 17.7%.
On to `C[C@]12C=CC(=O)C=C1CC[C@@H]1[C@@H]2[C@@H](O)C[C@@]2(C)[C@H]1CC[C@]2(O)C(=O)CO` [Prednisolone] (10000 nM), for which the normalised viability in experiment [1] was 109%; in experiment [2] it was 120%; in [3], 102%; in experiment [4] it was 103%.
Take `CCC/C=C/C=C/C(=O)O[C@H]1/C(=C/C(=O)OC)C[C@H]2C[C@H]([C@@H](C)O)OC(=O)C[C@H](O)C[C@@H]3C[C@H](OC(C)=O)C(C)(C)[C@](O)(C[C@@H]4C/C(=C/C(=O)OC)C[C@H](/C=C/C(C)(C)[C@]1(O)O2)O4)O3` [Bryostatin 1] (100 nM): the normalised viability in [1] was found to be 99.2%; in [2], 104%; in experiment [3] it was 77.3%; in experiment [4] it was 109%.
For `Nc1ccccc1NC(=O)c1ccc(CNc2nccc(-c3cccnc3)n2)cc1` [Mocetinostat] (10000 nM) the same measures were 21%, 48.4%, 2.37% and 19.3%.
Take `CNC(=O)c1cc(Oc2ccc(NC(=O)Nc3ccc(Cl)c(C(F)(F)F)c3)cc2)ccn1` [Sorafenib] (1000 nM): the normalised viability in experiment [1] was 76.9% and 89.3%; in [4] it was 78.7% and 89.8%.
For the compound `Cc1nc(Nc2ncc(C(=O)Nc3c(C)cccc3Cl)s2)cc(N2CCN(CCO)CC2)n1` [Dasatinib] (1000 nM), the normalised viability is 37.7% and 37.6% in experiment [1]; 11.7% and 10.7% in experiment [2]; 100% and 110% in experiment [3]; 36.7% and 40.3% in experiment [4].
Turning to `O=C1c2c(O)ccc(O)c2C(=O)c2c(NCCNCCO)ccc(NCCNCCO)c21` [Mitoxantrone] (1000 nM), the normalised viability in experiment [1] was 34%; in experiment [2], 48.9%; in experiment [3], 0.48%; in experiment [4], 16.9%.
`COc1cc(CCc2cc(NC(=O)c3ccc(N4CC(C)NC(C)C4)cc3)n[nH]2)cc(OC)c1` (centres undefined) [AZD4547] (1000 nM): the normalised viability came to 2.48% in experiment [1], 123% in experiment [2], 0.72% in experiment [3] and 3.02% in experiment [4].
For `COc1ccc(-c2cc3c(C)nc(N)nc3n([C@H]3CC[C@H](OCCO)CC3)c2=O)cn1` (10000 nM) the same measures were 5.23%, 5.55%, 0.68% and 2.53%.
For `C[C@]12O[C@H](C[C@]1(O)CO)n1c3ccccc3c3c4c(c5c6ccccc6n2c5c31)CNC4=O` [Lestaurtinib] (1000 nM) the same measures were 39.7%, 77.9%, 2.87% and 55%.
As to `COc1nc(N)nc2c1ncn2[C@@H]1O[C@H](CO)[C@@H](O)[C@@H]1O` [Nelarabine] (10000 nM), the normalised viability was 100% and 103% in experiment [1]; 69.1% and 69% in [2]; 109% and 104% in experiment [3]; 99.6% and 98.4% in [4].
Take `Cc1c(CN2CCN(C(=O)[C@H](C)O)CC2)sc2c(N3CCOCC3)nc(-c3cnc(N)nc3)nc12` [GDC-0980] (1000 nM): the normalised viability worked out at 27.1% in experiment [5]; 24.7% in [6]; 8.12% in experiment [7]; 50.2% in experiment [8]; 15.3% in experiment [9]; 16.5% in [10]. In addition, the normalised response in experiment [11] came out at 54.4%; in [12], 21.6%; in [13], 37.5%; in experiment [14], 36.4%; in experiment [15] it was 39.2%; in experiment [16] it was 35.2%. The normalised response in experiment [17] was found to be 35.8%; in experiment [18], 46.8%; in experiment [19], 85.5%; in [20] it was 20.4%; in experiment [21], 41.9%; in experiment [22], 52%. The normalised response in experiment [23] is 57%; in [24] it was 70.8%; in experiment [25], 75.9%; in [26], 35.9%; in experiment [27], 30.9%; in [28], 45.7%. In addition, the normalised response in experiment [29] was found to be 59.3%.
Consider `COc1nc(N)nc2c1ncn2[C@@H]1O[C@H](CO)[C@@H](O)[C@@H]1O` [Nelarabine] (1000 nM), for which the normalised viability is 101% and 98.4% in experiment [5]; 76.9% and 92.7% in experiment [6]; 101% and 89.3% in [7]; 103% and 110% in experiment [8]; 102% and 122% in [9]; 96.7% and 110% in experiment [10]. For the same compound, the normalised response was 92.1% in [11]; 80.7% in [12]; 99.1% in experiment [13]; 94.1% in experiment [14]; 82.8% in experiment [15]; 96.7% in experiment [16]. Moreover, the normalised response is 88.3% in experiment [17]; 98.7% in [18]; 113% in experiment [19]; 87.3% in experiment [20]; 98.7% in experiment [21]; 93.9% in [22]. Further, the normalised response in [23] is 83.7%; in [24], 96.2%; in experiment [25] it was 91.3%; in experiment [26] it was 85.6%; in [27] it was 88.7%; in experiment [28], 89.3%. Further, in experiment [29], the normalised response is 92.1%.
Turning to `CCN(CC)CCNC(=O)c1c(C)[nH]c(/C=C2\C(=O)Nc3ccc(F)cc32)c1C` [Sunitinib] (100 nM), the normalised viability was 93.3% and 99.1% in [5]; 91.3% and 100% in experiment [6]; 94% and 94.8% in experiment [7]; 109% and 86.6% in [8]; 94.3% and 116% in experiment [9]; 115% and 98.3% in experiment [10]. The normalised response in experiment [11] came out at 108%; in experiment [12] it was 112%; in experiment [13], 104%; in experiment [14], 107%; in experiment [15] it was 95.5%; in experiment [16] it was 101%. The normalised response in experiment [17] stood at 107%; in experiment [18], 103%; in [19], 107%; in [20], 92%; in experiment [21] it was 102%; in [22], 109%. In addition, the normalised response in [23] stood at 107%; in experiment [24], 99.4%; in experiment [25], 99.7%; in experiment [26] it was 104%; in experiment [27], 88.4%; in experiment [28], 108%. Also, in [29], the normalised response was 105%.
For `CCN(CC)CCNC(=O)c1c(C)[nH]c(/C=C2\C(=O)Nc3ccc(F)cc32)c1C` [Sunitinib] (1000 nM), the normalised viability in experiment [1] was 105% and 107%; in experiment [3], 88.2% and 77.7%; in [4] it was 112% and 98.6%.
